Results published in patent US10485584B2, “Supplement for cultivation of mammalian embryos” (Lekarska fakulta v Plzni, Univerzita Karlova (Faculty of …, priority 2017, dated 2019).
Marks after values point to notes of the source that are not given here.

Columns and labels:
Type in all cases: cell-based
[1] = tested on: porcine oocytes and zygotes; assay: IVF results after 22 hr IVC (penetration rate, paternal pronucleus, monospermic fertilization)
Method: (§1) Porcine ovaries were obtained from 6- to 8-month-old non-cycling gilts (a crossbreed of Landrace x Large White) at the local slaughterhouse (Jatky Plzen a.s., Plzen, Czech Republic) and transported to laboratory at 39° C. Cumulus-oocyte complexes (COCs) were collected from ovarian follicles with a diameter of 2-5 mm by aspiration with a 20-gauge needle and handled in HEPES-buffered Tyrode lactate medium containing 0.01% (w/v) polyvinyl alcohol (TL-HEPES-PVA). Only fully grown oocytes with evenly dense cytoplasm, surrounded by compact cumuli, were selected for IVM and washed in maturation medium. The medium used for IVM was modified tissue culture medium (mTCM) 199 (Gibco, Life Technologies, UK) supplemented with 0.1% PVA, 3.05 mM D-glucose, 0.91 mM sodium pyruvate, […], 0.5 μg·mL^−1 LH (Sigma-Aldrich, USA), 0.5 μg·mL^−1 FSH (Sigma), 10 ng·mL^−1 epidermal growth factor (EGF; Sigma), 10% porcine follicular fluid, 75 μg·mL^−1 penicillin G and 50 μg·mL^−1 streptomycin. After 22 h of culture, the COCs were cultured in TCM199 without LH and FSH for an additional 22 h. The COCs were cultured in 500 μL of the medium covered by mineral oil in a four-well Petri dish (Nunc, Denmark), at 39° C. and 5% CO2 in air (Abeydeera et al. Theriogenology 50:747-756, 1998).
(§2) After 44 h of IVM, cumulus cells were removed with 0.1% hyaluronidase in TL-HEPES-PVA and the metaphase II (MII) oocytes with extruded first polar body were selected for IVF. The oocytes were washed three-times with modified Tris-buffered medium (mTBM; Abeydeera et al. Theriogenology 50:747-756, 1998) with 0.2% bovine serum albumin (BSA; A7888; Sigma) and placed into 100 μL drops of mTBM, covered with mineral oil in a 35 mm Petri dish. The dishes were allowed to equilibrate at 38.5° C. and 5% CO2 for 30 min before spermatozoa were added for fertilization. Spermatozoa were prepared as follows: 1 mL liquid semen preserved in BTS-based extender was washed twice in phosphate buffered saline (PBS) with 0.1% PVA (PBS-PVA) at 1500 rpm for 5 min. The last wash was supplemented with MitoTracker CMTRos (400 nM; M7510, Invitrogen) for 10 min at 39° C., used to tag sperm mitochondria that associate with the paternal pronucleus inside the fertilized oocytes. Labeled spermatozoa were resuspended in mTBM ([…]) and 1 μL of this sperm suspension was added to the medium containing the oocytes to give a final sperm concentration of 2.5 or 5×10^5 spermatozoa mL^−1. Oocytes were co-incubated with spermatozoa for 5 to 6 h at 38.5° C. and 5% CO2 in air. Thereafter, oocytes were washed and transferred into 100 μL PZM3 medium (Yoshioka et al. Biol Reprod 66:112-119, 2002) containing 0.4% BSA (A6003; Sigma) for further culture for 22 h. Simultaneously, presumed zygotes were cultured in 500 μL of PZM3 medium for 144 hrs to reach blastocyst stage. PZM3 was supplemented with the object of invention, i.e. N-benzyl-3,5-dicarbethoxy-4-phenyl-1,4-dihydropyridine, diluted in DMSO. Vehicle control contained DMSO only in equal concentration (0.1%). Tested concentrations of the compound are 1.5 and 3 μM, based on preliminary experiments evaluating the range 0.3-30 μM (see Table 1).
(§3) Within the imaging of 22 h zygotes, an assessment of penetration rate, creation of paternal pronucleus/pronuclei and monospermic fertilization was performed. Embryo cleavage was assessed by microscopy at 144 h of IVC. After 144 h of IVC, embryos were fixed in 2% formaldehyde for 40 min at room temperature (RT), washed three times with PBS, permeabilized with PBS-Triton X-100 for 30 min, and stained with 2.5 μg/mL DAPI (DNA staining; Molecular Probes, Eugene, Oreg., USA) for 40 min. Embryo cleavage, blastocyst formation, and cell number per blastocyst were assessed under an Eclipse Ci fluorescence microscope (Nikon Co., Tokyo, Japan).
(§4) Data are presented as the mean±S.E.M. of at least three independent experiments. […]

[2] = tested on: H3K9me2/3 and H3K9ac in pronuclear chromatin of porcine zygotes; assay: Zygote quality: methylation and acetylation of histone H3 on lysine K9 in pronuclear chromatin after IVF; conditions: related to untreated vehicle, DMSO = 1, preliminary data
Method: as §2

porcine embryos = assay: Embryonic development and blastocyst formation after 144 hr IVC
Method: as §1, §2, §3, §4

[3] = 3.0 μM, 22 hr IVC, calculated from penetrated oocytes

CCOC(=O)C1=CN(Cc2ccccc2)C=C(C(=O)OCC)C1c1ccccc1 [N-benzyl-3,5-dicarbethoxy-4-phenyl-1,4-dihydropyridine]
penetrated oocytes (mean % ± SEM) ([1]; 3.0 μM, 22 hr IVC): 42.8% | No. of monospermic fertilization [1, 3]: 39 | No. of oocyte with PPN [1, 3]: 76 | monospermic fertilization (mean % ± SEM) [1, 3]: 42.4 ± 10.4% | oocyte with PPN (mean % ± SEM) [1, 3]: 82.6 ± 6.7% | No. of penetrated oocytes ([1]; 3.0 μM, 22 hr IVC, of 215 oocytes): 92 | polyspermic fertilization ([1]; in the presence of compound, versus DMSO vehicle): higher polyspermic fertilization | H3K9ac ([2]; 0.3 μM): 0.61 | H3K9me2/3 ([2]; 0.3 μM): 2.72 | H3K9ac ([2]; 3.0 μM): 0.63 | H3K9me2/3 ([2]; 3.0 μM): 1.64 | H3K9ac ([2]; 30 μM): 1.36 | H3K9me2/3 ([2]; 30 μM): 0.76 | Mean cell No. per blastocyst (mean ± SEM) (porcine embryos; 1.5 μM): 32.7 ± 2.5^a | No. of blastocysts (porcine embryos; 1.5 μM): 10 | No. of cleaved oocytes (porcine embryos; 1.5 μM): 47 | blastocysts (mean % ± SEM) (porcine embryos; 1.5 μM): 14.5 ± 7.2% | cleaved oocytes (mean % ± SEM) (porcine embryos; 1.5 μM): 70.2 ± 7.3% | Mean cell No. per blastocyst (mean ± SEM) (porcine embryos; 3 μM): 38.4 ± 4.2^a | No. of blastocysts (porcine embryos; 3 μM): 18 | No. of cleaved oocytes (porcine embryos; 3 μM): 44 | blastocysts (mean % ± SEM) (porcine embryos; 3 μM): 32.9 ± 8.1% | cleaved oocytes (mean % ± SEM) (porcine embryos; 3 μM): 62.7 ± 7.1% | efficiency compared with naturally occurring polyphenols (resveratrol) (porcine embryos; comparison with resveratrol): even more efficient than naturally occurring polyphenols

Oc1ccc(C=Cc2cc(O)cc(O)c2)cc1 [Resveratrol, reference compound]
Mean cell No. per blastocyst (mean ± SEM) (porcine embryos; 3 μM): 39.3 ± 11.3^a | No. of blastocysts (porcine embryos; 3 μM): 4 | No. of cleaved oocytes (porcine embryos; 3 μM): 47 | blastocysts (mean % ± SEM) (porcine embryos; 3 μM): 6.2 ± 2.8% | cleaved oocytes (mean % ± SEM) (porcine embryos; 3 μM): 67.7 ± 10.6%
